The results in this text go back to patent US8686190B2, “Bis-aromatic anticancer agents” (The UAB Research Foundation, priority 2008, dated 2014).

SMILES strings stand for the structures.

One assay has as its system LS174-T. The assay can be described thus: Cytotoxicity screening, LS174-T cells. The class given is cell-based. The note with it: Homo sapiens, LS174T; for IC50: read-out: IC50, drug dose to inhibit 50% cell proliferation; for inhibition at 10 µM: treatment at 10 μM, 24 h treatment then 96 h incubation. The procedure:
(§1) Tumor cells were maintained as monolayers in 75-cm^2 tissue culture flasks using their respective cell culture medium containing 10% fetal bovine serum and 2 mM L-glutamine. The cells were incubated at 37° C. under a humidified 5% CO2: air atmosphere (standard conditions) for five days. The cells were harvested when in mid-log growth and their concentration was determined using a particle counter (Beckman Coulter, Inc, Fullerton, Calif.). An aliquot of the cell suspension was diluted in culture medium for delivery to a 24-well tissue culture plate at a range of 10,000 to 30,000 per 1 mL per well. After 24 h, quadruplicate wells were inoculated with either vehicle (untreated controls) or test compounds at various concentrations. After 24 h of incubation, the wells were aspirated, washed once with 1 mL PBS, and refilled with 1 mL treatment-free medium. Following a 96-h incubation under the initial treatment conditions, the viable cells were counted and the numbers were normalized to the percent of untreated controls. The extent of cytotoxicity in treated wells as compared to the controls and the dose that inhibits 50% cell proliferation (IC50) was calculated.

For a further assay, the system named is MIA PaCa-2. Kind of assay: Cytotoxicity screening, MIA PaCa-2 cells. The note with it: Homo sapiens; for IC50: read-out: IC50, drug dose to inhibit 50% cell proliferation; for inhibition at 10 µM: treatment at 10 μM, 24 h treatment then 96 h incubation. It is filed as cell-based. On the procedure: as §1
The next assay concerns PC-3. Kind of assay: Cytotoxicity screening, PC-3 cells. The class given is cell-based. The note with it: Homo sapiens; for IC50: read-out: IC50, drug dose to inhibit 50% cell proliferation; for inhibition at 10 µM: treatment at 10 μM, 24 h treatment then 96 h incubation, read-out: Inhibition: percent cell death normalized against controls. The procedure: as §1
Assay [1] has as its system LS174-T human colon carcinoma tumors. The assay can be described thus: Evaluation of antitumor activity, nude mouse model of LS174-T tumors. It is filed as in vivo. The note with it: female nude mice, sc LS174-T tumors, iv qdx5; untreated control 15 days; n=8, p=0.043. On the procedure: Antitumor activity of compound II-e was evaluated using a nude mouse model of Ls174-T human colon cancer tumors. Female nude mice were implanted subcutaneously (sc) with LS174-T human colon carcinoma cells (10^7 cells/mouse). When tumors reached a cross diameter of 7 mm, the mice were randomized into 2×8 groups and were injected iv with either the vehicle (5% dextrose solution containing 20% 50:50, Cremophore EL: ethanol)) or a solution II-e in the same solvent system. The protocol used was qdx5 injections every 24 h. Tumor volumes were monitored by caliper measurement 3× weekly (see FIG. 1 wherein circles correspond to inactivated compound IIe; triangles correspond to vehicle; and squares correspond to compound II-e).

A further assay deals with Panc-1. Kind of assay: Cytotoxicity screening, Panc-1 cells. It is filed as cell-based. The note with it: Homo sapiens; for inhibition at 10 µM: Panc-1, treatment at 10 μM, 24 h treatment then 96 h incubation, read-out: Inhibition: percent cell death normalized against controls. The procedure:
as §1

Setting [2] is: measured at 7.5 μM, read-out: Inhibition: percent cell death normalized against controls.
Setting [3] is: read-out: Inhibition: percent cell death normalized against controls.

Regarding `COc1cc(/C=C/C(=O)CC(=O)/C=C/c2ccc(O)c(OC)c2)ccc1O` [curcumin, reference compound], the values for the IC50 with LS174-T, in the assay with MIA PaCa-2 and in the assay with PC-3 were 6.5 µM, 9 µM and 12 µM, respectively.

On to `OC(CSCC(O)c1cc(C(F)(F)F)cc(C(F)(F)F)c1)c1cc(C(F)(F)F)cc(C(F)(F)F)c1` (stereo not shown) [II-e], for which the inhibition at 7.5 µM in the assay with LS174-T (setting [2]) worked out at 96 ± 1%; in the assay with MIA PaCa-2 (setting [2]) it was 94 ± 2%. Further, the IC50 with LS174-T is 3.6 µM; in the assay with Panc-1 (PANC-1, read-out: IC50, drug dose to inhibit 50% cell proliferation) it was 6.3 µM; in the assay on MIA PaCa-2, 3.7 µM; in the assay on PC-3 it was 4.4 µM. For the same compound, the inhibition at 10 µM worked out at 96% in the assay on LS174-T (setting [3]), 80 ± 4% in the assay on Panc-1, 94 ± 2% in the assay with MIA PaCa-2 (setting [3]) and 78 ± 4% in the assay on PC-3. This compound came in with a Tumor doubling time in assay [1] of 30 days.

With `COc1cccc(C(O)CSCC(O)c2cccc(OC)c2OC)c1OC` (stereo not shown) [II-b], the inhibition at 10 µM with LS174-T (setting [3]) amounted to 0%; in the assay with Panc-1, 0%; with MIA PaCa-2 (setting [3]) it was 0%; in the assay with PC-3 it was 8 ± 4%.

For the compound `CC(=O)C(CSCC(C(C)=O)c1cc(C(F)(F)F)cc(C(F)(F)F)c1)c1cc(C(F)(F)F)cc(C(F)(F)F)c1` (stereo not shown) [II-e bis-OAc, 4,4′-thiobis(3-(3,5-bis(trifluoromethyl)phenyl)butan-2-one)], the inhibition at 10 µM in the assay on MIA PaCa-2 (setting [3]) is 29 ± 6%.

As to `OC(CSCC(O)c1ccc(C(F)(F)F)cc1)c1ccc(C(F)(F)F)cc1` (stereo not shown) [II-d], the inhibition at 10 µM in the assay on LS174-T (setting [3]) worked out at 33 ± 6%; in the assay with Panc-1, 27 ± 5%; in the assay on MIA PaCa-2 (setting [3]), 11 ± 4%; with PC-3 it was 43 ± 4%.

As for `OC(CSCC(O)c1ccccc1)c1ccccc1` (stereo not shown) [II-a], the inhibition at 10 µM in the assay on PC-3 was found to be 5 ± 9%.

Take `OC(CSCC(O)c1ccc(OC(F)(F)F)cc1)c1ccc(OC(F)(F)F)cc1` (stereo not shown) [II-c]: the inhibition at 10 µM with LS174-T (setting [3]) worked out at 13 ± 7%; in the assay with Panc-1, 43 ± 9%; with MIA PaCa-2 (setting [3]), 34 ± 14%; in the assay with PC-3, 40 ± 7%.

The inhibition is the percentage by which the read-out fell short of the control.
